Source: ChEMBL document CHEMBL1201862, “PubChem BioAssay data set” (2004)
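Step 1: Grow cells in 96-well plates. Step 2: Expose to compound for 48 hours at 5 concentrations. Step 3: Interpolate endpoints linearly; if unreached, use highest concentration. GI50 = concentration required for 50% inhibition of growth.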 The source made the active and inactive calls. No stated cut-off is given here; in the data, active = GI50 up to about 1.1 µM and inactive = higher.

Columns and labels:
Assay in all cases: NCI tumour cell line growth inhibition, 48 h
U-251 = system: U-251
HCT-116 = system: HCT-116
RXF 393 = system: RXF 393
CCRF-CEM = system: CCRF-CEM
Malme-3M = system: Malme-3M
TK-10 = system: TK-10
CAKI-1 = system: CAKI-1
SF-539 = system: SF-539
EKVX = system: EKVX
MCF7 = system: MCF7
HT-29 = system: HT-29
NCI-H460 = system: NCI-H460
UACC-62 = system: UACC-62
OVCAR-4 = system: OVCAR-4
ACHN = system: ACHN
A498 = system: A498
COLO 205 = system: COLO 205
LOX IMVI = system: LOX IMVI
786-0 = system: 786-0
KM12 = system: KM12

Structure (SMILES) | GI50 (U-251) | GI50 (HCT-116) | GI50 (RXF 393) | GI50 (CCRF-CEM) | GI50 (Malme-3M) | GI50 (TK-10) | GI50 (CAKI-1) | GI50 (SF-539) | GI50 (EKVX) | GI50 (MCF7) | GI50 (HT-29) | GI50 (NCI-H460) | GI50 (UACC-62) | GI50 (OVCAR-4) | GI50 (ACHN) | GI50 (A498) | GI50 (COLO 205) | GI50 (LOX IMVI) | GI50 (786-0) | GI50 (KM12)
O=C(/C=C/C(Cl)(Cl)Cl)Nc1ccc(Cl)cc1 | 11.6 µM (inactive) | 4.73 µM (inactive) | 3.01 µM (inactive) | 1.56 µM (inactive) | 5.37 µM (inactive) | 2.35 µM (inactive) | 0.8 µM (active) | 1.99 µM (inactive) | 5.02 µM (inactive) | 17.5 µM (inactive) | 1.94 µM (inactive) | 14.2 µM (inactive) | 7.64 µM (inactive) | 1.82 µM (inactive) | 2.3 µM (inactive) | 13.9 µM (inactive) | 2.19 µM (inactive) | 0.8 µM (active) | 1.55 µM (inactive) | 2.05 µM (inactive)
CCN1CCC(O)(/C=C/c2cccc(C)c2)C(C(=O)/C=C/c2cccc(C)c2)C1 (stereo not given) | 1.72 µM (inactive) | 2.18 µM (inactive) | 1.67 µM (inactive) | 1.57 µM (inactive) | 1.57 µM (inactive) | 1.71 µM (inactive) | 2 µM (inactive) | 2.17 µM (inactive) | 2.04 µM (inactive) | 1.9 µM (inactive) | 1.52 µM (inactive) | 2.12 µM (inactive) | 1.82 µM (inactive) | 4.31 µM (inactive) | 1.59 µM (inactive) | 2.03 µM (inactive) | 1.95 µM (inactive) | 2.17 µM (inactive) | 2.26 µM (inactive) | 1.56 µM (inactive)
O=C(c1cccs1)c1nccc2c1cnc1ccccc12 | 41.2 µM (inactive) | 90.8 µM (inactive) | 0.0113 µM (active) | > 100 µM (inactive) | > 100 µM (inactive) | > 100 µM (inactive) | 41.5 µM (inactive) | > 100 µM (inactive) | > 100 µM (inactive) | 20.3 µM (inactive) | > 100 µM (inactive) | > 100 µM (inactive) | > 100 µM (inactive) | > 100 µM (inactive) | 38.5 µM (inactive) | 63.8 µM (inactive) | > 100 µM (inactive) | > 100 µM (inactive) | 68.5 µM (inactive) | > 100 µM (inactive)
O=[N+]([O-])c1ccc(C2Nn3c(nnc3-c3cccc([N+](=O)[O-])c3)S2)cc1 (stereo not given) | > 100 µM (inactive) | 67.6 µM (inactive) | > 100 µM (inactive) | 36.8 µM (inactive) | > 100 µM (inactive) | > 100 µM (inactive) | > 100 µM (inactive) | 9.08 µM (inactive) | > 100 µM (inactive) | 44.3 µM (inactive) | > 100 µM (inactive) | > 100 µM (inactive) | > 100 µM (inactive) | > 100 µM (inactive) | > 100 µM (inactive) | > 100 µM (inactive) | > 100 µM (inactive) | 82 µM (inactive) | > 100 µM (inactive) | > 100 µM (inactive)
CC(NNC(=O)c1cc[n+]([BH2-]C#N)cc1)c1cccc(C(F)(F)F)c1 (stereo not given) | 88.7 µM (inactive) | 82 µM (inactive) | 60.1 µM (inactive) | > 100 µM (inactive) | > 100 µM (inactive) | > 100 µM (inactive) | > 100 µM (inactive) | > 100 µM (inactive) | > 100 µM (inactive) | 56.2 µM (inactive) | 82.2 µM (inactive) | 77.8 µM (inactive) | 73.3 µM (inactive) | > 100 µM (inactive) | > 100 µM (inactive) | > 100 µM (inactive) | > 100 µM (inactive) | 71.6 µM (inactive) | > 100 µM (inactive) | > 100 µM (inactive)
